Source: patent publication US20260317356A1, “SMALL MOLECULE MODULATORS OF OGG1” (AZKARRA THERAPEUTICS, INC., priority 2023, published 2026)

How the values were obtained:
[1] = molecular target: T1, nLucOGG1 in HeLa cells (Homo sapiens, UniProt O15527); experiment: Cellular Thermal Shift Assay to measure compound affinity for nLucOGG1 in HeLa cells (CETSA DTm); format: cell-based; conditions: 10 μM compound, 37° C. 60 min, Tm vs DMSO control
T1 construct: thermal shift read by NanoGlo luminescence
T1 sequence (O15527 whole entry): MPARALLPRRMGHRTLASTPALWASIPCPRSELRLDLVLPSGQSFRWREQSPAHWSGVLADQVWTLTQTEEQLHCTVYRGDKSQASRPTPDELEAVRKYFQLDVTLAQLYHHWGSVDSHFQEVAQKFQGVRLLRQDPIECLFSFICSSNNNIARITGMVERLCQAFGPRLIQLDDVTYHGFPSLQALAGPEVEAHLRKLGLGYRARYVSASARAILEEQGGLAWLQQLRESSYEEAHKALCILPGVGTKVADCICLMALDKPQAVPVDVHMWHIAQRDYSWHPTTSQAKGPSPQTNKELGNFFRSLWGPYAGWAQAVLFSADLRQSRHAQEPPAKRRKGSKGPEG
Description: Biological Example 2: Cellular Thermal Shift Assay to Measure Compound Affinity for ^nLucOGG1 in HeLa Cells (CETSA DTm)
Cell Culture and Transfection of Hela Cells with ^nLucOGG1: For all tests, Hela cells were maintained in growth medium, Dulbecco's Minimum Eagle Medium (Multicell: Cat #319-005-CL) supplemented with 10% heat-inactivated fetal bovine serum (Gibco: Cat #12484-028) at 37° C. and 5% CO2 in a humidified tissue culture incubator. Transient transfections were performed using the Lonza 4-D Nucleofector X unit according to the manufacturer's protocol (Lonza Cat #V4XC-1024). Briefly, for each transfection, 1.2×10^6 cells were centrifuged at 1000 RPM for 5 minutes at room temperature before being diluted in 100 μL SE solution containing 18% v/v supplement and 1.5 μg pNF1-N-empty or pNF1-N-OGG1a vector. The total volume was transferred to a 100 μL nucleofection cuvette prior to transfer to the apparatus where HeLa cell nucleofection protocol CN-114 was executed. Following nucleofection, 500 μL complete media was added to the cells in the cuvette before transferring to a 6-well dish containing 1.5 mL of complete media. Cells were left to incubate for 48 hours before performing all cellular thermal shift experiments.
Cellular Thermal Shift Assays for Target Engagement (CETSA): Forty-eight hours following nucleofection, cells were washed once with DPBS−/−(Multicell: Cat #311-425-CL) and lifted with 0.25% Trypsin-EDTA (Multicell: Cat #325-043-CL) prior to dilution in growth medium and centrifugation at 1000 RPM for 5 minutes at room temperature. The resulting cell pellet was then resuspended in growth medium, cells were counted and the volume adjusted to 500 k cells/mL (2×).
For delta Tm determination, OGG1 inhibitor compounds were dissolved in DMSO to a final working concentration of 20 mM. Working solutions were then diluted in complete media to 20 μM or 0.1% DMSO for the vehicle control (2×). 2×OGG1 inhibitor compound solutions or 0.1% DMSO control were then pre-dispensed into MicroAmp Optical 96-well PCR reaction plates (Applied Biosystems: Cat #4346906) at 50 μL/well. Next, 50 μL or 25 k cells/well from the 2× cell suspension was added to the pre-loaded PCR plates. All plates were prepared as duplicates, covered with adhesive plate sealers (Perkin Elmer: Cat #6050185) and left to incubate at 37° C. for 60 minutes. During incubation, sufficient NanoGlo luciferase assay reagents (Promega: Cat #N1120) were left to equilibrate to room temperature in the dark. Immediately before heating the plates, the NanoGlo substrate was mixed with the NanoGlo buffer at a 1:50 ratio. The thermal cycler (Veriti 96-Well Thermal Cycler, Thermo Fisher Scientific) was allowed to reach the designated temperature prior to placement of the PCR plate into the heating block. For Tm determination experiments, duplicate plates containing a fixed concentration of test compound (10 μM final) as well as vehicle control were prepared to perform a 12-point temperature gradient spanning 37-70° C. for 3 minutes. Therefore, two thermal cycler protocols were set up covering two 6-step temperature gradients ranging from 37-52° C. and 52-70° C. Plates were then allowed to cool at room temperature for 5 minutes after the heat treatment followed by transfer of 75 μL of the reaction into a 96-well white polystyrene microplate (Corning: Cat #CLS3903) and addition of 75 μL of the prepared NanoGlo mixture. Microplates were then left to shake in the dark for 5 minutes before total luminescence was measured on a SpectraMax IX3 plate reader. The luminescence value obtained at each temperature was normalized to the luminescence obtained at 37° C. and the ratio obtained was plotted against the temperature. A Boltzman Sigmoidal non-linear regression was applied to the resulting data to determine Tm values and the difference between the Tm value for a given OGG1 inhibitor relative to the DMSO vehicle control was the delta Tm.

[2] = molecular target: hOGG1 (Homo sapiens, UniProt O15527); experiment: Biochemical fluorescence assay to measure enzymatic activity of hOGG1 (OGG1/APEX IC50); parameters: Protein His-hOGG1 (12-323) was prepared; His (N); host or cells: E. coli; conditions: 1 nM OGG1+2 nM APEX+6 nM dsDNA (8-oxo-dG substrate); pH 7.5; RT 40 min; read-out: OGG1/APEX IC50
Sequence of hOGG1 (O15527 12-323): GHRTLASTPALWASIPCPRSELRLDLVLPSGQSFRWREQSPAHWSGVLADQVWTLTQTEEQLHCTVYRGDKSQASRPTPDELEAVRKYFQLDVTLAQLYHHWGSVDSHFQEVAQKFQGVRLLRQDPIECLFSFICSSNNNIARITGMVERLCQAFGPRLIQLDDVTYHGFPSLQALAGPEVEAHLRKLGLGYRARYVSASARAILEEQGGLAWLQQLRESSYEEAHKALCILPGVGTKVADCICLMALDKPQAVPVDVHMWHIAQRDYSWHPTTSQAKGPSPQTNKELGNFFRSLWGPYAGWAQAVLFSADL
Outline: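 His-hOGG1 (12-323, E. coli) at 1 nM with 2 nM hAPE1/APEX1, preincubated 20 min RT with compound. Then 6 nM 8-oxo-dG dsDNA substrate added, 40 min at RT in Tris pH 7.5, 100 mM KCl. TAMRA fluorescence (Ex520/Em600) converted to % inhibition vs controls; IC50 from 3-parameter fit of 10-point curve.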

SMILES | ΔTm at 10 µM [1] | IC50 [2]
COc1ccc(NC(=O)[C@H]2CC[C@@H](N3Cc4c(C)ccnc4NC3=O)CC2)cc1 [Example 15, (1s,4s)-N-(4-methoxyphenyl)-4-(5-methyl-2-oxo-1,2-dihydropyrido[2,3-d]pyrimidin-3(4H)-yl)cyclohexanecarboxamide] | 6 to 8 °C | 1000 to 10000 nM
COc1ccc(NC(=O)[C@H]2CC[C@@H](N3Cc4c(C)ccc(OC)c4NC3=O)CC2)cc1C [Example 4, (1s,4s)-N-(3-Methyl-4-methoxyphenyl)-4-(8-methoxy-5-methyl-2-oxo-1,2-dihydroquinazolin-3(4H)-yl)cyclohexanecarboxamide] | 6 to 8 °C | 100 to 1000 nM
COc1ccc(NC(=O)[C@H]2CC[C@@H](N3Cc4c(C)cc(NCCN(C)C)cc4C3=O)CC2)cc1Cl [Example 260, (1s,4s)-N-(3-Chloro-4-methoxyphenyl)-4-(6-(2-(dimethylamino)ethylamino)-4-methyl-1-oxoisoindolin-2-yl)cyclohexanecarboxamide] | > 10 °C | < 100 nM
COc1cc(NC(=O)[C@H]2CC[C@@H](N3Cc4c(C)ccc(C#N)c4C3=O)CC2)ccc1C [Example 143, (1s,4s)-4-(7-Cyano-4-methyl-1-oxoisoindolin-2-yl)-N-(3-methoxy-4-methylphenyl)cyclohexanecarboxamide] | 6 to 8 °C | < 100 nM
COc1ccc(NC(=O)[C@]2(C)CC[C@H](N3Cc4c(C)ccc(OC)c4NC3=O)CC2)cc1C#N (single isomer, unassigned) [Example 9, (1s,4s)-N-(3-cyano-4-methoxyphenyl)-4-(8-methoxy-5-methyl-2-oxo-1,2-dihydroquinazolin-3(4H)-yl)-1-methylcyclohexanecarboxamide] | 8 to 10 °C | < 100 nM
COc1cc(NC(=O)[C@H]2CC[C@@H](N3Cc4c(C)ccc(OC)c4NC3=O)CC2)ccc1C [Example 47, (1s,4s)-N-(3-Methoxy-4-methylphenyl)-4-(8-methoxy-5-methyl-2-oxo-1,2-dihydroquinazolin-3(4H)-yl)cyclohexanecarboxamide] | 6 to 8 °C | < 100 nM
COc1ccc(NC(=O)[C@]2(C)CC[C@H](N3Cc4c(C)cccc4NC3=O)CC2)cc1Cl (single isomer, unassigned) [Example 103, (1s,4s)-N-(3-chloro-4-methoxyphenyl)-1-methyl-4-(5-methyl-2-oxo-1,2-dihydroquinazolin-3(4H)-yl)cyclohexanecarboxamide] | 8 to 10 °C | < 100 nM
COc1cc(NC(=O)[C@H]2CC[C@@H](N3Cc4c(C)cc(N(C)C)cc4C3=O)CC2)ccc1C [Example 135, (1s,4s)-4-(6-(Dimethylamino)-4-methyl-1-oxoisoindolin-2-yl)-N-(3-methoxy-4-methylphenyl)cyclohexane-1-carboxamide] | 6 to 8 °C | < 100 nM
COc1ccc(NC(=O)[C@H]2CC[C@@H](N3Cc4c(C)cc(NCCN(C)C)cc4NC3=O)CC2)cc1C [Example 97, (1s,4s)-4-(7-(2-(dimethylamino)ethylamino)-5-methyl-2-oxo-1,2-dihydroquinazolin-3(4H)-yl)-N-(4-methoxy-3-methylphenyl)cyclohexanecarboxamide] | 8 to 10 °C | < 100 nM
COc1cc(NC(=O)[C@H]2CC[C@@H](N3Cc4c(C)ccc(OCC5CNC5)c4NC3=O)CC2)ccc1C [Example 44, (1s,4s)-4-(8-(Azetidin-3-ylmethoxy)-5-methyl-2-oxo-1,2-dihydroquinazolin-3(4H)-yl)-N-(3-methoxy-4-methylphenyl)cyclohexanecarboxamide] | 8 to 10 °C | < 100 nM
COc1ccc(NC(=O)[C@]2(C)CC[C@H](N3Cc4c(C)ccc(OC)c4NC3=O)CC2)cc1C (single isomer, unassigned) [Example 11, (1s,4s)-N-(3-methyl-4-methoxyphenyl)-4-(8-methoxy-5-methyl-2-oxo-1,2-dihydroquinazolin-3(4H)-yl)-1-methylcyclohexanecarboxamide] | 8 to 10 °C | < 100 nM
COc1cc(NC(=O)[C@H]2CC[C@@H](N3Cc4c(C)ccc(OC5CNC5)c4NC3=O)CC2)ccc1C [Example 45] | 8 to 10 °C | < 100 nM
COc1ccc(NC(=O)[C@H]2CC[C@@H](N3Cc4c(C)cc(NCCN(C)C)cc4C3=O)CC2)cc1C#N [Example 259, (1s,4s)-N-(3-Cyano-4-methoxyphenyl)-4-(6-(2-(dimethylamino)ethylamino)-4-methyl-1-oxoisoindolin-2-yl)cyclohexanecarboxamide] | 8 to 10 °C | < 100 nM
COc1cc(NC(=O)[C@H]2CC[C@@H](N3Cc4c(C)ccc(C#N)c4NC3=O)CC2)ccc1C [Example 59, (1s,4s)-4-(8-cyano-5-methyl-2-oxo-1,2-dihydroquinazolin-3(4H)-yl)-N-(3-methoxy-4-methylphenyl)cyclohexanecarboxamide] | 8 to 10 °C | < 100 nM
COc1ccc(NC(=O)[C@H]2CC[C@@H](N3Cc4c(C)cc(NCCN(C)C)cc4C3=O)CC2)cc1C [Example 256, (1s,4s)-4-(6-(2-(Dimethylamino)ethylamino)-4-methyl-1-oxoisoindolin-2-yl)-N-(4-methoxy-3-methylphenyl)cyclohexanecarboxamide] | > 10 °C | < 100 nM
CNCCNc1cc(C)c2c(c1)C(=O)N([C@H]1CC[C@@H](C(=O)Nc3ccc(C)c(OC)c3)CC1)C2 [Example 193, (1s,4s)-N-(3-methoxy-4-methylphenyl)-4-(4-methyl-6-(2-(methylamino)ethylamino)-1-oxoisoindolin-2-yl)cyclohexanecarboxamide] | > 10 °C | < 100 nM
COc1cc(NC(=O)[C@H]2CC[C@@H](N3Cc4c(C)ccc(CNC(C)=O)c4NC3=O)CC2)ccc1C [Example 17, (1s,4s)-4-(8-(Acetamidomethyl)-5-methyl-2-oxo-1,2-dihydroquinazolin-3(4H)-yl)-N-(3-methoxy-4-methylphenyl)cyclohexanecarboxamide] | > 10 °C | < 100 nM
COc1cc(NC(=O)[C@H]2CC[C@@H](N3Cc4c(C)cc(OCCN5CC(F)(F)C5)cc4C3=O)CC2)ccc1C [Example 255, (1s,4s)-4-(6-(2-(3,3-Difluoroazetidin-1-yl)ethoxy)-4-methyl-1-oxoisoindolin-2-yl)-N-(3-methoxy-4-methylphenyl)cyclohexanecarboxamide] | 6 to 8 °C | 100 to 1000 nM
